Reference: the NIST ThermoML archive (doi:10.1021/je300382a)
± gives the expanded uncertainty stated by the source.

Test: xn = mol fraction of the nth substance listed
Details: Ring tensiometer

NCc1ccccc1 [benzylamine] + O
surface tension liquid-gas [mN/m]
Details	283.15 K	293.15 K	303.15 K	313.15 K	323.15 K
x1 = 0.0001	69.5 ± 1.1	67.7 ± 1.6	65.5 ± 1.5	63.2 ± 1.6	61.6 ± 1.1
x1 = 0.0005	60.4 ± 2.5	58.1 ± 4.2	56.1 ± 4.2	54.3 ± 4.2	52.3 ± 2.5
x1 = 0.001	54.9 ± 3.2	53.1 ± 4.8	50.6 ± 4.6	48.8 ± 4.5	47.2 ± 3.6
x1 = 0.003	48.6 ± 8.6	46.1 ± 8.5	44.3 ± 8.5	42.6 ± 8.4	40.1 ± 8.4
x1 = 0.006	42.1 ± 1.7	40.7 ± 1.4	39.2 ± 1.3	37.7 ± 1.2	36.4 ± 1
x1 = 0.01	41.4 ± 0.6	40 ± 0.6	38.6 ± 0.6	37.5 ± 0.5	36 ± 0.5
x1 = 0.03	39.5 ± 0.5	38.4 ± 0.5	37.5 ± 0.5	36.3 ± 0.5	35.6 ± 0.5
x1 = 0.05	39.3 ± 0.5	38.3 ± 0.5	37.5 ± 0.5	36.3 ± 0.5	35.5 ± 0.5
x1 = 0.07	38.9 ± 0.5	38.1 ± 0.5	37.3 ± 0.5	36.2 ± 0.5	35.5 ± 0.5
x1 = 0.1	38.7 ± 0.5	38 ± 0.5	37.2 ± 0.5	36.2 ± 0.5	35.4 ± 0.5
x1 = 0.2	38.6 ± 0.5	37.8 ± 0.5	37 ± 0.5	36.1 ± 0.5	35.4 ± 0.5
x1 = 0.3	38.4 ± 0.5	37.5 ± 0.5	36.9 ± 0.5	35.9 ± 0.5	35.2 ± 0.5
x1 = 0.4	38.4 ± 0.5	37.5 ± 0.5	36.9 ± 0.5	35.9 ± 0.5	35.2 ± 0.5
x1 = 0.5	38.3 ± 0.5	37.6 ± 0.5	36.8 ± 0.5	35.9 ± 0.5	35.2 ± 0.5
x1 = 0.6	38.2 ± 0.5	37.4 ± 0.5	36.6 ± 0.5	35.7 ± 0.5	35.2 ± 0.5
x1 = 0.7	38.1 ± 0.5	37.3 ± 0.5	36.5 ± 0.5	35.8 ± 0.5	35.1 ± 0.5
x1 = 0.8	38.1 ± 0.5	37.3 ± 0.5	36.5 ± 0.5	35.8 ± 0.5	35.1 ± 0.5
x1 = 0.9	38 ± 0.5	37.2 ± 0.5	36.4 ± 0.5	35.7 ± 0.5	35.1 ± 0.5
x1 = 1	37.9 ± 0.6	37.1 ± 0.5	36.3 ± 0.5	35.6 ± 0.5	35 ± 1
